Legend:
γH2AX = test: p-γH2AX immunofluorescent staining of FaDu cells; assay type: cell-based, human; conditions: 1 μM BrdU with 1 Gy of 14 keV NR
Procedure: Referring to FIGS. 23A and 23B, p-γH2AX immunofluorescent staining for evaluating DNA damages induced by BrdU, RS2000, BrdU with RS2000, NR, and NR with BrdU, are provided in accordance with exemplary embodiments of the present disclosure. γH2AX is the histone H2AX protein with phosphorylated amino acid on serine 139. γH2AX is a specific marker for DNA DSBs. FaDu cells are seeded on a chamber slides, and are fixed with −20° C., 100% ethanol under room temperature for 15 minutes. The fixed chamber slides are washed with PBS, and permeablized with 0.1% Triton X-100 for 10 minutes. Then, the chamber slides are blocked with 5% milk in PBS for 30 minutes at room temperature, and incubated with primary antibody (anti-γH2AX) overnight at 4° C. FaDu cells in the chamber slides are then washed with PBS, and incubated with secondary antibody which is conjugated by a fluorescent dye for 1 hour at room temperature. The nuclei were countestained with 5 μg/ml of DAPI (4′,6-diamidino-2-phenylindole). The stained FaDu cells are then being mounted and subjected to microscopic examination with a confocal laser scanning microscope (ZEISS LSM780). The number of p-γH2AX are quantified using Metamorph software. […] FIG. 23B is a quantitative result of FIG. 23A. […]

[1] = tested on: subcutaneous malignant solid tumor comprised of FaDu cells; test: in vivo tumor growth of subcutaneous FaDu solid tumor on tumorigenic mice; conditions: for tumor growth inhibition rate: end of the in vivo test; for relative proliferation rate of solid tumor: repeated after 7 days
Procedure: FIG. 12 is a schematic diagram of an in vivo animal experiment, in accordance with an exemplary embodiment of the present disclosure. A subcutaneous malignant solid tumor comprised of FaDu cells (tumor size is about 200 mm^3) on the tumorigenic mice is injected with 0.5 μg/μl of IdU. 4 hours after the injection, the solid tumor is then irradiated by 4 Gy 33 keV NR. The IdU-NR treatment are repeated on the same tumor after 7 days. Other groups of mouse are only injected with 50 μg of IdU or only irradiated with 4 Gy 33 keV NR, and the IdU injection or the NR irradiation is repeated on the same tumor after 7 days. The control group is the mice without NR, IdU, or IdU-NR treatment.
The subcutaneous malignant solid tumor comprised of FaDu cells on the tumorigenic mice is treated with IdU, NR, or IdU and NR, following the same experiment procedure as depicted in FIG. 12. The relative proliferation rates of the solid tumors are calculated by measuring the size of the solid tumor on Days 3, 7, 10, 14, 17, 21, 24, and 28, respectively. […] The solid tumor of IdU-NR group has the lowest relative proliferation rate among other groups, and the relative proliferation rate of IdU-NR group is even lower than 100% (p<0.05), this indicates the tumor size is smaller after the IdU and NR treatment.
To further investigate a therapeutically effective dosage for the combination of IdU and NR, another series of in vivo experiments are conducted, see FIGS. 15A-15F. The experiment procedure is the same with the procedure described in FIG. 12. FIG. 15A and FIG. 15B show cells irradiated with 2.25 Gy NR and 2.25 Gy RS2000, FIG. 15C and FIG. 15D show cells irradiated with 4.5 Gy NR and 4.5 Gy RS2000, and FIG. 15E and FIG. 15F show cells irradiated with 9 Gy NR and 9 Gy RS2000, in accordance with exemplary embodiments of the present disclosure. Control groups in FIGS. 15A-15F are FaDu cells isolated from the subcutaneous solid tumor of the tumorigenic mouse without treatment of IdU or any radiation. The tumor growth index in FIGS. 15A-15F are calculated based on tumor volumes: for each of the tumorigenic mouse, the tumor volume on Day 0 is set as 100%, and relative volume percentages in the following days relative to Day 0 are presented as the tumor growth index (%).

FaDu-RFP+ cells = test: in vivo IdU incorporation rate in FaDu-RFP+ solid tumors (flow cytometry); parameters: species or system mouse
Excerpt: An injection concentration of IdU is selected based on a flow cytometry analysis on the incorporation rate of IdU in tumor cells. Referring to FIG. 13A, a schematic diagram of an in vivo animal experiment for determining an injection concentration of IdU is provided in accordance with an exemplary embodiment of the present disclosure. FaDu cells are marked with RFP (red fluorescent protein) and […]. The malignant solid tumors formed by FaDu-RFP+ cells on the tumorigenic mouse are injected with different concentrations of IdU: 100 μg, 50 μg, 20 μg, 10 μg, 5 μg, or 2 μg per 100 μl PBS. 4 hours later, the tumorigenic mouse are sacrificed and the solid tumors are isolated to single cells. The single cells from the solid tumors are then subjected to antibody staining and flow cytometry analyses. Referring to FIG. 13B, a flow cytometry result of the experiments described by FIG. 13A, is provided in accordance with an exemplary embodiment of the present disclosure. The horizontal axis represents the RFP signals, and the vertical axis represents the GFP signals. […] Only 6.232% of FaDu cells are detected with GFP in the left panel of FIG. 13B. The right panel of FIG. 13B are FaDu cells treated with 50 μg of IdU, an area 132 is FaDu cells detected with GFP signals. 19.088% of FaDu cells are detected with GFP signals in the right panel of FIG. 13B. […]

CASPASE-3 = test: immunohistochemical (IHC) examination of subcutaneous FaDu tumor cells; assay type: in vivo, mouse; conditions: 1 day after treatment
Procedure: One day after the tumorigenic mouse are treated with IdU, or the combination of IdU and 4.5 Gy of NR/RS2000, the subcutaneous FaDu tumor cells are subjected to immunohistochemical (IHC) examination. […] The control group in FIGS. 15A-15F or FIGS. 16A-16B is the subcutaneous FaDu tumor cells without any treatment. […] CASPASE-3 is directly involved in apoptosis, therefore the combination of IdU and NR is proven to induce tumor growth inhibition.

| SMILES | γH2AX expression (immunofluorescent staining) (γH2AX) | tumor growth inhibition rate ([1]; IdU 50 μg and 4.5 Gy NR) | tumor growth inhibition rate ([1]; IdU 50 μg and 9 Gy NR) | tumor growth versus RS2000 only ([1]; IdU 50 μg and RS2000 (2.25, 4.5, 9 Gy)) | relative proliferation rate of solid tumor ([1]; IdU-NR group, 0.5 μg/μl IdU plus 4 Gy 33 keV NR, p<0.05) | relative proliferation rate of solid tumor ([1]; IdU-only group, 50 μg of IdU, to Day 28) | tumor growth (tumor growth index) ([1]; treated only with IdU, 50 μg) | IdU incorporation rate among injected concentrations (FaDu-RFP+ cells; 50 μg IdU/100 μl PBS versus 100, 20, 10, 5, 2 μg) | FaDu cells detected with GFP signals (IdU incorporation) (FaDu-RFP+ cells; 50 μg of IdU injected into tumor, 4 hours) | apoptotic cells (IHC, qualitative) (CASPASE-3; IdU and 4.5 Gy of NR, versus other groups) | CASPASE-3 expression in the tumor cells (IHC, quantitative) (CASPASE-3; IdU and NR, versus other treatments) |
| --- | --- | --- | --- | --- | --- | --- | --- | --- | --- | --- | --- |
| O=c1[nH]c(=O)n([C@H]2C[C@H](O)[C@@H](CO)O2)cc1Br [BrdU, bromodeoxyuridine] | significant amount of γH2AX expression | – | – | – | – | – | – | – | – | – | – |
| O=c1[nH]c(=O)n([C@H]2C[C@H](O)[C@@H](CO)O2)cc1I [IdU, iododeoxyuridine] | – | 68% | 83% | does not significantly inhibit the tumor growth | lower than 100% | lower relative proliferation rate than the control group | not inhibited | best IdU incorporation rate | 19.088% | more apoptotic cells | more pronounced CASPASE-3 expression |

Reference: patent US20210401867A1, “PHOTOSENSITIZERS AND METHOD OF TREATING CANCER USING THE SAME” (Cheng-Wen Wu, priority 2018, published 2021)
